Experimental data reported in ChEMBL document CHEMBL4390668, “Discovery and Structural Optimization of Acridones as Broad-Spectrum Antimalarials” (J Med Chem, 2019).
Calls of active or inactive are those of the source. The rule behind the calls is not given here.

Experiments:
Plasmodium falciparum [1] = experiment: Antimalarial activity against chloroquine-sensitive Plasmodium falciparum D6 infected in human erythrocytes by SYBR green 1-based fluorescence assay; assay type: functional, organism-based
Plasmodium falciparum [2] = experiment: Antimalarial activity against drug-resistant Plasmodium falciparum Dd2 harboring M133I/A138T double mutant infected in human erythrocytes after 72 hrs by SYBR green 1-based fluorescence assay; assay type: functional, organism-based; conditions: Dd2, 72 h
Plasmodium falciparum [3] = experiment: Antimalarial activity against drug-resistant Plasmodium falciparum 3D7 harboring A82T/V259L double mutant infected in human erythrocytes after 72 hrs by SYBR green 1-based fluorescence assay; assay type: functional, organism-based; conditions: 3D7, 72 h
[4] = Apparent volume of distribution in ICR mouse plasma at 80 mg/kg, po administered as single dose; assay type: ADME, organism-based; conditions: in vivo
[5] = Tmax in ICR mouse plasma at 80 mg/kg, po administered as single dose; assay type: ADME, organism-based; conditions: ICR, plasma, read-out: Tmax
Plasmodium falciparum [6] = experiment: Antimalarial activity against multidrug-resistant Plasmodium falciparum Dd2 infected in human erythrocytes by SYBR green 1-based fluorescence assay; assay type: functional, organism-based
[7] = Apparent elimination half life in ICR mouse plasma at 80 mg/kg, po administered as single dose; assay type: ADME, organism-based; conditions: ICR, plasma, read-out: betat1/2(app) (converted)
[8] = Half life in human liver microsomes at 1 uM by LC-MS analysis; assay type: ADME, Microsome
[9] = Toxicity in CF1 mouse infected with blood stage Plasmodium yoelii MR4 MRA-428 assessed as clinical toxicity at 80 mg/kg, po administered once daily via gavage for 4 days starting from for 4 days starting from 24 hrs post-infection and measured daily during compound dosing; assay type: organism-based; conditions: in vivo
[10] = Mutagenicity in Salmonella typhimurium TA100 assessed as increase in revertant colonies up to 10 uM in absence of S9 fraction by Ames test; assay type: toxicity; conditions: salmonella enterica subsp. enterica serovar typhimurium
Plasmodium falciparum [11] = experiment: Inhibition of Plasmodium falciparum cytochrome b-c1
[12] = Cmax in ICR mouse liver at 80 mg/kg, po administered as single dose; assay type: ADME, organism-based; parameters: dose 80 mg/kg, route oral
[13] = Mutagenicity in Salmonella typhimurium TA100 assessed as increase in revertant colonies up to 10 uM in presence of S9 fraction by Ames test; assay type: toxicity, subcellular; conditions: salmonella enterica subsp. enterica serovar typhimurium
Plasmodium falciparum [14] = experiment: Antimalarial activity against atovaquone-resistant Plasmodium falciparum Tm90-C2B infected in human erythrocytes by SYBR green 1-based fluorescence assay; assay type: functional, organism-based
Plasmodium berghei [15] = experiment: (§1) Antimalarial activity against blood stage luciferase-expressing Plasmodium berghei ANKA 676m1cl1 sporozoites infected in C57BL/6 mouse assessed as suppression of parasitemia at 10 mg/kg, po pretreated for 1 day followed by parasite infection and subsequent compound dosing for 2 days measured up to 30 days post-infection by YOYO1 staining based flow cytometry; assay type: functional
[16] = AUC (0 to infinity) in ICR mouse plasma at 80 mg/kg, po administered as single dose; assay type: ADME, organism-based; parameters: dose 80 mg/kg, route oral, time infinity; conditions: ICR, plasma
[17] = Selectivity index, ratio of IC50 for human HepG2 cells to IC50 for chloroquine-sensitive Plasmodium falciparum D6 infected in human erythrocytes; assay type: toxicity, cell-based; conditions: read-out: Ratio IC50
[18] = Mutagenicity in Salmonella typhimurium TA98 assessed as increase in revertant colonies up to 10 uM in absence of S9 fraction by Ames test; assay type: toxicity; conditions: salmonella enterica subsp. enterica serovar typhimurium
[19] = Apparent clearance in ICR mouse plasma at 80 mg/kg, po administered as single dose; assay type: ADME, organism-based; conditions: read-out: CL(app) (converted)
[20] = AUC (0 to last) in ICR mouse liver at 80 mg/kg, po administered as single dose; assay type: ADME, organism-based; parameters: dose 80 mg/kg, route oral, time 0 - last
Plasmodium berghei [21] = experiment: as §1, with “against liver” for “against blood”, “measured at 24” for “measured up”, “to 48 hrs” for “to 30 days”, “by luciferin-based real-time imaging analysis” for “by YOYO1 staining based flow cytometry”; assay type: functional
Plasmodium falciparum [22] = experiment: Antimalarial activity against drug-resistant Plasmodium falciparum Dd2 harboring V259L mutant infected in human erythrocytes after 72 hrs by SYBR green 1-based fluorescence assay; assay type: functional, organism-based; conditions: Dd2, 72 h
[23] = Mutagenicity in Salmonella typhimurium TA98 assessed as increase in revertant colonies up to 10 uM in presence of S9 fraction by Ames test; assay type: toxicity, subcellular; conditions: salmonella enterica subsp. enterica serovar typhimurium
[24] = AUC (0 to last) in ICR mouse plasma at 80 mg/kg, po administered as single dose; assay type: ADME, organism-based; parameters: dose 80 mg/kg, route oral, time 0 - last
[25] = Cmax in ICR mouse plasma at 80 mg/kg, po administered as single dose; assay type: ADME, organism-based; parameters: dose 80 mg/kg, route oral; conditions: ICR, plasma, read-out: Cmax
Plasmodium yoelii [26] = experiment: (§2) Antimalarial activity against blood stage Plasmodium yoelii MR4 MRA-428 infected in CF1 mouse assessed as suppression of parasitemia administered once daily via oral gavage for 4 days starting from 24 hrs post-infection and measured post-last dose by Giemsa-staining based microscopic analysis; assay type: functional
[27] = AUC (0 to infinity) in ICR mouse liver at 80 mg/kg, po administered as single dose; assay type: ADME, organism-based; parameters: dose 80 mg/kg, route oral, time infinity
hERG (KCNH2) = hERG (KCNH2) (Homo sapiens, UniProt Q12809); experiment: Inhibition of human ERG expressed in CHOK1 cells at 10 uM by automated patch clamp method relative to control; assay type: cell-based; conditions: CHO-K1 cells that express hERG
[28] = Mean residence time in ICR mouse liver at 80 mg/kg, po administered as single dose; assay type: ADME, organism-based
[29] = Apparent elimination half life in ICR mouse liver at 80 mg/kg, po administered as single dose; assay type: ADME, organism-based; conditions: read-out: betat1/2(app) (converted)
[30] = Toxicity in CF1 mouse infected with blood stage Plasmodium yoelii MR4 MRA-428 assessed as behavioral changes at 80 mg/kg, po administered once daily via gavage for 4 days starting from for 4 days starting from 24 hrs post-infection and measured daily during compound dosing; assay type: organism-based; conditions: in vivo
Plasmodium yoelii [31] = experiment: as §2, with “parasitemia at 80 mg/kg, po” for “parasitemia”, “via” for “via oral”, “at weekly intervals for 28 days” for “post-last dose”; assay type: functional
[32] = Tmax in ICR mouse liver at 80 mg/kg, po administered as single dose; assay type: ADME, organism-based
[33] = Mean residence time in ICR mouse plasma at 80 mg/kg, po administered as single dose; assay type: ADME, organism-based
Plasmodium falciparum [34] = experiment: Antimalarial activity against multidrug-resistant Plasmodium falciparum 7G8 infected in human erythrocytes by SYBR green 1-based fluorescence assay; assay type: functional, organism-based
HepG2 = experiment: Cytotoxicity against human HepG2 cells measured after 24 to 36 hrs by resazurin dye based fluorescence assay; assay type: cell-based
[35] = Half life in mouse liver microsomes at 1 uM by LC-MS analysis; assay type: ADME, Microsome
Plasmodium berghei [36] = experiment: Antimalarial activity against luciferase-expressing Plasmodium berghei ANKA 676m1cl1 sporozoites infected in human HepG2A16 cells measured after 45 hrs by luciferase-luciferin based reporter assay; assay type: functional, organism-based; conditions: ANKA 676m1cl1, HepG2A16, 45 h
Plasmodium berghei [37] = experiment: Antimalarial activity against liver stage luciferase-expressing Plasmodium berghei ANKA 676m1cl1 sporozoites infected in C57BL/6 mouse assessed as suppression of parasitemia at 40 to 160 mg/kg, po pretreated for 1 day followed by parasite infection and subsequent compound dosing for 2 days measured at 24 to 48 hrs post-infection by luciferin-based real-time imaging analysis; assay type: functional
Plasmodium falciparum [38] = experiment: Antimalarial activity against Plasmodium falciparum 3D7 infected in human erythrocytes after 72 hrs by SYBR green 1-based fluorescence assay; assay type: functional, organism-based; conditions: 3D7, 72 h
Plasmodium falciparum [39] = experiment: Antimalarial activity against drug-resistant Plasmodium falciparum Dd2 harboring M133I mutant infected in human erythrocytes after 72 hrs by SYBR green 1-based fluorescence assay; assay type: functional, organism-based; conditions: Dd2, 72 h

hERG (KCNH2), sequence (Q12809 whole entry): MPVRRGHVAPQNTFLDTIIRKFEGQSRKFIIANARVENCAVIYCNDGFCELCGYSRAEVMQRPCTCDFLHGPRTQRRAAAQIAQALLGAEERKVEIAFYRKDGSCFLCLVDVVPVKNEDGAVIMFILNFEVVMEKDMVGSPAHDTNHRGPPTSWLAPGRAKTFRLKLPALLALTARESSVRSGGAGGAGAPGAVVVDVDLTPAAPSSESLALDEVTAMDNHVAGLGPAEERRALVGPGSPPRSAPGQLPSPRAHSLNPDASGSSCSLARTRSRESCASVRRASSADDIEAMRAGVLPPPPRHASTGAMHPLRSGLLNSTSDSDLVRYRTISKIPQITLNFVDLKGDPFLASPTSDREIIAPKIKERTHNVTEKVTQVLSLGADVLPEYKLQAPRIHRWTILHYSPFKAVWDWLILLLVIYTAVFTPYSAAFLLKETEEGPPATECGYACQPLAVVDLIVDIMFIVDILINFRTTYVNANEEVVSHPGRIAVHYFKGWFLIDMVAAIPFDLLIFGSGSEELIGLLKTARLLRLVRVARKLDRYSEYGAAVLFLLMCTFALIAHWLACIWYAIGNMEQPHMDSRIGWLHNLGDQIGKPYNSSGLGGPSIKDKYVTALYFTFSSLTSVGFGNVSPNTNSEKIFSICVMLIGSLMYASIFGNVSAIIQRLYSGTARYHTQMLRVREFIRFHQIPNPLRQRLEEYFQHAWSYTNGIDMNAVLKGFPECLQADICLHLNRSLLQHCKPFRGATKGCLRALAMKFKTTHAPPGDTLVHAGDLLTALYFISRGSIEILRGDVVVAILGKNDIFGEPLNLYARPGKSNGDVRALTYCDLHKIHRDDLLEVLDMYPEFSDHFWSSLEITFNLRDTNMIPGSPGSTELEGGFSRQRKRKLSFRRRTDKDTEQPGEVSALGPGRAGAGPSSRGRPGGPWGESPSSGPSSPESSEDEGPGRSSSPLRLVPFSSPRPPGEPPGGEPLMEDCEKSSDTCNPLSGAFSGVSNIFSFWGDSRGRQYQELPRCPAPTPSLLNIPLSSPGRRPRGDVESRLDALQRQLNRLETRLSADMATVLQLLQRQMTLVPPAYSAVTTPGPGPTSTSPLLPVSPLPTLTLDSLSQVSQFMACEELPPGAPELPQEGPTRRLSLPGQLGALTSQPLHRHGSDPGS

Structure (SMILES) | IC50 (Plasmodium falciparum [1]) [nM] | IC50 (Plasmodium falciparum [2]) [nM] | IC50 (Plasmodium falciparum [3]) [nM] | Vz [4] [L/kg] | Tmax [5] [h] | IC50 (Plasmodium falciparum [6]) [nM] | half-life [7] [h] | half-life at 1 µM [8] [h] | inhibition (Plasmodium falciparum [11]) | Cmax [12] [ng/mL] | IC50 (Plasmodium falciparum [14]) [nM] | AUC(0-inf) [16] [µg·h/mL] | selectivity ratio [17] | CL/F [19] [mL/min/kg] | AUC(0-t) [20] [µg·h/mL] | IC50 (Plasmodium falciparum [22]) [nM] | AUC(0-t) [24] [µg·h/mL] | Cmax [25] [ng/mL] | ED50 (Plasmodium yoelii [26]) [mg/kg.day] | ED90 (Plasmodium yoelii [26]) [mg/kg.day] | further results
CCCN(CCC)CCOc1ccc2c(=O)c3c(Cl)c(Cl)ccc3[nH]c2c1 | 0.17 | 50 | 79 | 58.684 | 5.5 | 0.05 to 9 | 2.29 | 0.183 | inactive | 42300 | 142 | 4.52 | 245000 | 295 | 547 | 216 | 3.84 | 631 | 1.04 | 1.14 | Activity [9]: Non-Toxic; Activity [10]: Non-Toxic; Activity [13]: Non-Toxic; Activity (Plasmodium berghei [15]): 100%; Activity [18]: Non-Toxic; Activity (Plasmodium berghei [21]): 100%; Activity [23]: Non-Toxic; AUC(0-inf) [27]: 547 µg·h/mL; inhibition at 10 µM (hERG (KCNH2)): 25%; MRT [28]: 6.07 h; half-life [29]: 1.84 h; Activity [30]: Non-Toxic; Activity (Plasmodium yoelii [31]): 100%; Tmax [32]: 7 h; MRT [33]: 4.69 h; IC50 (Plasmodium falciparum [34]): 0.3 nM; IC50 (HepG2): 41600 nM; half-life at 1 µM [35]: 0.283 h; IC50 (Plasmodium berghei [36]): 1.1 nM
CCN(CC)CCOc1ccc2c(=O)c3ccc(Cl)cc3[nH]c2c1 | 32 | 1070 | 1640 | 37.689 | 2 | 41 to 117 | 1.9 | > 1 | inactive | 193000 | 589 | 5.81 | 1140 | 230 | 1460 | 2120 | 5.31 | 1360 | 48 | 72 | Activity (Plasmodium berghei [37]): 100%; IC50 (Plasmodium falciparum [38]): 84 nM; AUC(0-inf) [27]: 1460 µg·h/mL; MRT [28]: 5.59 h; half-life [29]: 6.7 h; Tmax [32]: 1 h; MRT [33]: 3.41 h; IC50 (Plasmodium falciparum [34]): 38 nM; IC50 (HepG2): 36400 nM; half-life at 1 µM [35]: > 1 h; IC50 (Plasmodium berghei [36]): 113 nM
CCCCN(CCCC)CC(O)c1cc(Cl)cc2c1-c1ccc(Cl)cc1/C2=C/c1ccc(Cl)cc1 (configuration not stated) [LUMEFANTRINE] |  | 3.6 | 4.5 |  |  | 5.7 |  |  | inactive |  |  |  |  |  |  | 6.5 |  |  |  |  | IC50 (Plasmodium falciparum [38]): 3 nM; IC50 (Plasmodium falciparum [39]): 3.6 nM
